# Test results published in US4839385A, “Use of manoalide and its derivatives for modifying calcium homeostasis” (The Regents of the University of California, priority 1987, dated 1989).
# How the values were obtained:
# Assay type in all cases: cell-based
# EL-4 = assay: Inhibition of growth of tumor cell line EL-4
# intracellular stores = assay: Calcium release from intracellular stores, gastric glands; settings: 30-50 μM
# Description: (§1) The effect of manoalide on intracellular calcium levels was investigated through experiments using gastric glands. These glands contain two types of cells that use either plasma membrane channels or release from intracellular stores to increase cytosolic calcium.
# Peptic cells [1] = assay: CCK or carbachol stimulated increase in calcium (release from intracellular stores) in peptic cells
# Protocol: (§2) Gastric glands contain both peptic cells (release of calcium from intracellular stores) and parietal cells (plasma membrane calcium channel). Gastric cells were isolated as described by Muallem, et. al. (Amer. J. Physiol. 248-G216-G228, 1985). Addition of CCK or carbachol to a final concentration of […] and 0.1 mM respectively were used to activate these cells. Muallem et al. (J. Biol. Chem.: In Press, 1986) have shown that these hormones stimulate these cells and result in an increase in free intracellular cytosolic calcium.
# (§3) With peptic cells, the hormones CCK or carbachol cause release of calcium from intracellular stores. […] The calcium signal in these cells is different from that observed in the conconavalin stimulated release of calcium from spleen cells.
# The calcium transient observed is characteristic of the release of calcium from intracellular stores. If calcium is removed from the extracellular medium it has no effect on the calcium signal.
# Parietal cells = assay: Acid secretion in parietal cells after carbachol or forskolin stimulation
# A431 cells = assay: EGF-induced calcium signal in A431 human epidermoid carcinoma cells; settings: 1.5 μM; 5 minutes; EGF 5 μg/ml
# Protocol: The A431 cell line, human epidermoid carcinoma cell, can be activated with 5 μg/ml epidermal growth factor (EGF). Sawyer, S. T. and Cohen, S (Biochemistry 20, 6280-6286, 1981) have shown that EGF enhances calcium uptake in these cells.
# A431 Cells were grown in 150 ml Falcon flasks containing Dulbecco's modified Eagle's medium (Gibco) supplemented with 10% fetal calf serum (Irvine Scientific) and gentamycin.
# [2] = tested on: plasma membrane calcium channels; assay: Calcium entry through plasma membrane calcium channels, gastric glands; settings: 1 μM and less
# Description: as §1
# Peptic cells [3] = assay: Pepsin secretion in peptic cells after CCK, carbachol or forskolin stimulation
# Protocol: as §2, §3
# To examine the correlation between secretion and the calcium signal, the effects of manoalide on pepsin secretion were quantitated (Table 3).
# Mouse spleen cells = assay: Effect of manoalide on Con A-induced rise in intracellular calcium in mouse spleen cells (FURA-2)
# Protocol: When 40 μg/ml Con A was added to single cell suspensions of mouse spleen cells were prepared by the standard methods, a rapid rise in intracellular calcium was observed. This calcium signal is characteristic of calcium moving from outside the cell to inside through a plasma membrane channel. If calcium is removed from the external medium, the rise in intracellular calcium is completely absent.
# (§4) The concentration of free intracellular calcium was determined by loading the cells with a calcium sensitive florescent dye, FURA-2® (Grynkiewicz, G., Poenig, M. and Tsien, R. J., Biol. Chem 260: 3440-3450, 1985). Fluorescence measurements and calibration curves were done the same as for Quin-2, Pandol, S., Schoeffield, M., Sachs, G. and Muallem, S. (J. Biol. Chem 10081-10086, 1985).
# (§5) Once the cells were loaded, aliquots (10^6 cells/ml) were placed in cuvettes and the baseline intracellular calcium concentration determined.
# (§6) Manoalide was dissolved in polyethylene glycol 400 or dimethylsulfoxide and added as indicated before the Con A was added to the cuvette.
# (§7) *All cells were preincubated at 37° C. for 5 minutes before
# (§8) addition of Con A (40 μg/ml).
# Human lymphocytes = assay: Effect of manoalide on Con A-induced calcium rise in human lymphocytes (FURA-2); settings: Lymphocyte, 5 min preincubation 37° C., Con A 40 μg/ml
# Protocol: as §4, §5, §6
# Similar results were obtained with human lymphocytes isolated and prepared according to the method of Muallem, et al.
# as §7, §8
smiles,measurement,setting,value
CC1=C(CC/C(C)=C/CCC2=CCC(C3=CC(=O)OC3O)OC2O)C(C)(C)CCC1 (centres unmarked) [manoalide],tumor cell growth inhibition,EL-4,inhibited from growing
same,calcium release from intracellular stores,intracellular stores,blocks calcium release
same,inhibition of CCK or carbachol stimulated increase in calcium,Peptic cells [1]; 5 μM,no inhibition
same,inhibition of the calcium signal,Peptic cells [1]; 50 μM or higher,showed inhibition of the calcium signal
same,nature of the inhibition of the calcium signal,Peptic cells [1]; 50 μM or higher,irreversible and time dependent
same,inhibition of the calcium signal,Peptic cells [1]; 60 μM,significant inhibition of the calcium signal
same,activity at 0.1 µM,Parietal cells; Carbachol Stimulation,50%
same,activity at 0.1 µM,Parietal cells; Forskolin,100%
same,activity at 0.5 µM,Parietal cells; Carbachol Stimulation,10%
same,activity at 0.5 µM,Parietal cells; Forskolin,100%
same,activity at 5 µM,Parietal cells; Carbachol Stimulation,0%
same,activity at 5 µM,Parietal cells; Forskolin,100%
same,activity at 50 µM,Parietal cells; Carbachol Stimulation,0%
same,activity at 50 µM,Parietal cells; Forskolin,100%
same,acid secretion in parietal cells,Parietal cells; preincubation with 0.1-5.0 μM,blocked acid secretion
same,effect on the Ca signal,A431 cells,complete abolition
same,calcium entering through the plasma membrane calcium channels,[2],inhibits calcium from entering
same,activity at 0.1 µM,Peptic cells [3]; CCK Stimulation (N = 5),100%
same,activity at 0.1 µM,Peptic cells [3]; Carbachol (2),100%
same,activity at 0.1 µM,Peptic cells [3]; Forskolin (2),100%
same,activity at 0.5 µM,Peptic cells [3]; CCK Stimulation (N = 5),105%
same,activity at 0.5 µM,Peptic cells [3]; Carbachol (2),110%
same,activity at 0.5 µM,Peptic cells [3]; Forskolin (2),100%
same,activity at 5 µM,Peptic cells [3]; CCK Stimulation (N = 5),115%
same,activity at 5 µM,Peptic cells [3]; Carbachol (2),110%
same,activity at 5 µM,Peptic cells [3]; Forskolin (2),100%
same,activity at 50 µM,Peptic cells [3]; CCK Stimulation (N = 5),60%
same,activity at 50 µM,Peptic cells [3]; Carbachol (2),40%
same,activity at 50 µM,Peptic cells [3]; Forskolin (2),100%
same,minimal effective concentration,"Peptic cells [3]; peptic cells, read-out: concentration below which no inhibition of the biological effect was observed",> 50 µM
same,inhibition of the rise in intracellular calcium,"Mouse spleen cells; 0.5 μM, 5 min preincubation 37° C., 40 μg/ml Con A",complete inhibition
same,nature of the inhibition of the calcium signal,Mouse spleen cells; Con A 40 μg/ml,time dependent and irreversible
same,inhibition at 0.01 µM,"Mouse spleen cells; Mus musculus, 0.01 μM, 5 min preincubation 37° C., Con A 40 μg/ml",0%
same,inhibition at 0.1 µM,"Mouse spleen cells; Mus musculus, 0.1 μM, 5 min preincubation 37° C., Con A 40 μg/ml",30%
same,inhibition at 0.3 µM,"Mouse spleen cells; Mus musculus, 0.3 μM, 5 min preincubation 37° C., Con A 40 μg/ml",70%
same,inhibition at 1 µM,"Mouse spleen cells; Mus musculus, 1.0 μM, 5 min preincubation 37° C., Con A 40 μg/ml",100%
same,inhibition at 0.05 µM,Human lymphocytes; 0.05 μM,0%
same,inhibition at 0.1 µM,Human lymphocytes; 0.1 μM,15%
same,inhibition at 0.25 µM,Human lymphocytes; 0.25 μM,30%
same,inhibition at 0.5 µM,Human lymphocytes; 0.5 μM,65%
same,inhibition at 1 µM,Human lymphocytes; 1.0 μM,100%
